One block for each compound: values may come before it.
How the values were obtained:
[1] = biological target: casein kinase 1 epsilon (CK1 epsilon) (Homo sapiens (Human), UniProt P49674); assay: Test A: inhibitory activity on CK1 epsilon, casein phosphorylation assay on ATP-33P filter plate; type: biochemical; conditions: IC50 values or IC50 ranges (result of several experiments), ATP 10 μM final
Summary of the method: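 Human CK1 epsilon (3 ng/μL final) phosphorylates dephosphorylated casein (0.2 μg/μL) with ATP-33P plus 10 μM cold ATP (KM for ATP 21 μM), 2 h at room temperature, pH 7.5 Tris buffer. TCA-precipitated protein counted by scintillation; compounds at 10 to 0.001 μM give IC50 values or % inhibition at 10 μM.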

casein kinase 1 epsilon (CK1 epsilon), sequence (P49674 whole entry): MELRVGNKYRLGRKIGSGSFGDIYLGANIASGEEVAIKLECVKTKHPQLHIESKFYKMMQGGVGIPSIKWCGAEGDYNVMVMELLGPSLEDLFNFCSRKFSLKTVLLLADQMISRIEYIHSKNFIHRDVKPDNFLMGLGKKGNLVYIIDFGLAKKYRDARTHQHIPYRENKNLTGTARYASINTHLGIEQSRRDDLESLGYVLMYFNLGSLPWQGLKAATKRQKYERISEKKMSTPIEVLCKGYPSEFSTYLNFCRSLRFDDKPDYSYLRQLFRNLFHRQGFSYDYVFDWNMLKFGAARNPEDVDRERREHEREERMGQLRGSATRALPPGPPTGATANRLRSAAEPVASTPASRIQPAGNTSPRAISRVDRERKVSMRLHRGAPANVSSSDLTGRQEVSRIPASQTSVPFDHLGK

melting point: 224 to 226 °C
IC50 [1]: 3 to 5 nM
SMILES: COc1ccc(-c2c(C(N)=O)c3n(c2C2CC2)CCN(C(=O)NC24CC5CC(CC(C5)C2)C4)C3)cc1 [Compound 55, N^2-(adamantan-1-yl)-6-cyclo-propyl-7-(4-methoxyphenyl)-3,4-dihydropyrrolo[1,2-a]pyrazine-2,8(1H)-dicarboxamide]

melting point: 192 to 195 °C
IC50 [1]: 1 to 2 nM
SMILES: CC(C)(C)NC(=O)N1CCn2c(Cl)c(-c3cccc(C#N)c3)c(C(N)=O)c2C1 [Compound 65, N^2-tert-butyl-6-chloro-7-(3-cyanophenyl)-3,4-dihydropyrrolo[1,2-a]pyrazine-2,8(1H)-dicarboxamide]

melting point: 196 to 198 °C
IC50 [1]: 1 to 5 nM
SMILES: CC(C)(C)NC(=O)N1CCn2c(Cl)c(-c3cccc(F)c3)c(C(N)=O)c2C1 [Compound 67, N^2-tert-butyl-6-chloro-7-(3-fluorophenyl)-3,4-dihydropyrrolo[1,2-a]pyrazine-2,8(1H)-dicarboxamide]

melting point: 205 to 207 °C
IC50 [1]: 1 to 11 nM
SMILES: CC(C)(CO)CNC(=O)N1CCn2c(Cl)c(-c3cccc(F)c3)c(C(N)=O)c2C1 [Compound 73, 6-chloro-7-(3-fluorophenyl)-N^2-(3-hydroxy-2,2-dimethylpropyl)-3,4-dihydropyrrolo[1,2-a]pyrazine-2,8(1H)-dicarboxamide]

melting point: 210 to 213 °C
IC50 [1]: 10 to 27 nM
SMILES: NC(=O)c1c(-c2ccccc2)c(Cl)n2c1CN(C(=O)NCC(F)(F)F)CC2 [Compound 76, 6-chloro-7-phenyl-N^2-(2,2,2-trifluoroethyl)-3,4-dihydropyrrolo[1,2-a]pyrazine-2,8(1H)-dicarboxamide]

melting point: 190 to 193 °C
IC50 [1]: 3 nM
SMILES: C[C@H](NC(=O)N1CCn2c(Cl)c(-c3cccc(F)c3)c(C(N)=O)c2C1)C(F)(F)F [Compound 78, 6-chloro-7-(3-fluorophenyl)-N^2-[(2S)-1,1,1-trifluoropropan-2-yl]-3,4-dihydropyrrolo[1,2-a]pyrazine-2,8(1H)-dicarboxamide]

melting point: 119 to 124 °C
IC50 [1]: 2 to 16 nM
SMILES: NC(=O)c1c(-c2cccc(F)c2)c(Cl)n2c1CN(C(=O)NCCC(F)(F)F)CC2 [Compound 80, 6-chloro-7-(3-fluorophenyl)-N^2-(3,3,3-trifluoropropyl)-3,4-dihydropyrrolo[1,2-a]pyrazine-2,8(1H)-dicarboxamide]

melting point: 212 to 214 °C
IC50 [1]: 1 to 3 nM
SMILES: NC(=O)c1c(-c2cccc(F)c2)c(Cl)n2c1CN(C(=O)NC1CCC(F)(F)CC1)CC2 [Compound 89, 6-chloro-N^2-(4,4-difluoro-cyclo-hexyl)-7-(3-fluorophenyl)-3,4-dihydropyrrolo[1,2-a]pyrazine-2,8(1H)-dicarboxamide]

The next lines start with the compound.

SMILES: COc1ccc(-c2c(C(N)=O)c3n(c2C2CC2)CCN(C(=O)NC2CCOCC2)C3)cc1 [Compound 56, 6-cyclo-propyl-7-(4-methoxyphenyl)-N^2-(tetrahydro-2H-pyran-4-yl)-3,4-dihydropyrrolo[1,2-a]pyrazine-2,8(1H)-dicarboxamide]
melting point: 176 to 177 °C
IC50 [1]: 26 to 38 nM

SMILES: COCC(C)(C)NC(=O)N1CCn2c(c(C(N)=O)c(-c3ccc(OC)cc3)c2C2CC2)C1 [Compound 57, 6-cyclo-propyl-N^2-(1-methoxy-2-methylpropan-2-yl)-7-(4-methoxyphenyl)-3,4-dihydropyrrolo[1,2-a]pyrazine-2,8(1H)-dicarboxamide]
melting point: 168 to 170 °C
IC50 [1]: 36 nM

SMILES: CC(C)(C)NC(=O)N1CCn2c(F)c(-c3ccccc3)c(C(N)=O)c2C1 [Compound 58, N^2-tert-butyl-6-fluoro-7-phenyl-3,4-dihydropyrrolo[1,2-a]pyrazine-2,8(1H)-dicarboxamide]
melting point: 213 to 215 °C
IC50 [1]: 5 to 28 nM

SMILES: Cc1cccc(-c2c(C(N)=O)c3n(c2Cl)CCN(C(=O)NC(C)(C)C)C3)c1 [Compound 61, N^2-tert-butyl-6-chloro-7-(3-methylphenyl)-3,4-dihydropyrrolo[1,2-a]pyrazine-2,8(1H)-dicarboxamide]
melting point: 196 to 197 °C
IC50 [1]: 1 to 8 nM

SMILES: COc1ccc(-c2c(C(N)=O)c3n(c2Cl)CCN(C(=O)NC(C)(C)C)C3)cc1 [Compound 64, N^2-tert-butyl-6-chloro-7-(4-methoxyphenyl)-3,4-dihydropyrrolo[1,2-a]pyrazine-2,8(1H)-dicarboxamide]
melting point: 168 to 170 °C
IC50 [1]: 1 to 5 nM

SMILES: CC(C)CCNC(=O)N1CCn2c(Cl)c(-c3ccccc3)c(C(N)=O)c2C1 [Compound 69, 6-chloro-N^2-(3-methylbutyl)-7-phenyl-3,4-dihydropyrrolo[1,2-a]pyrazine-2,8(1H)-dicarboxamide]
melting point: 154 to 155 °C
IC50 [1]: 5 nM

SMILES: CC(C)(CO)CNC(=O)N1CCn2c(Cl)c(-c3cccc(C(F)(F)F)c3)c(C(N)=O)c2C1 [Compound 74, 6-chloro-N^2-(3-hydroxy-2,2-dimethylpropyl)-7-(3-trifluoromethyl-phenyl)-3,4-dihydropyrrolo[1,2-a]pyrazine-2,8(1H)-dicarboxamide]
melting point: 185 to 187 °C
IC50 [1]: 6 nM

SMILES: NC(=O)c1c(-c2cccc(F)c2)c(Cl)n2c1CN(C(=O)NCC1(CO)CC1)CC2 [Compound 75, 6-chloro-7-(3-fluorophenyl)-N^2-{[1-(hydroxymethyl)cyclo-propyl]methyl}-3,4-dihydropyrrolo[1,2-a]pyrazine-2,8(1H)-dicarboxamide]
melting point: 204 to 206 °C
IC50 [1]: 4 to 5 nM

SMILES: NC(=O)c1c(-c2cccc(F)c2)c(Cl)n2c1CN(C(=O)NCC(F)(F)F)CC2 [Compound 77, 6-chloro-7-(3-fluorophenyl)-N^2-(2,2,2-trifluoroethyl)-3,4-dihydropyrrolo[1,2-a]pyrazine-2,8(1H)-dicarboxamide]
melting point: 208 to 213 °C
IC50 [1]: 2 to 8 nM

SMILES: CC(C)(NC(=O)N1CCn2c(Cl)c(-c3cccc(F)c3)c(C(N)=O)c2C1)C(F)(F)F [Compound 79, 6-chloro-7-(3-fluorophenyl)-N^2-(1,1,1-trifluoro-2-methylpropan-2-yl)-3,4-dihydropyrrolo[1,2-a]pyrazine-2,8(1H)-dicarboxamide]
melting point: 183 to 187 °C
IC50 [1]: 1 to 4 nM

SMILES: NC(=O)c1c(-c2ccccc2)c(Cl)n2c1CN(C(=O)NC1CCCCC1)CC2 [Compound 82, 6-chloro-N^2-cyclo-hexyl-7-phenyl-3,4-dihydropyrrolo[1,2-a]pyrazine-2,8(1H)-dicarboxamide]
melting point: 208 to 209 °C
IC50 [1]: 1 to 7 nM

SMILES: NC(=O)c1c(-c2cccc(F)c2)c(Cl)n2c1CN(C(=O)N[C@H]1CC[C@H](O)CC1)CC2 [Compound 83, trans-6-chloro-7-(3-fluorophenyl)-N^2-(4-hydroxy-cyclo-hexyl)-3,4-dihydropyrrolo[1,2-a]pyrazine-2,8(1H)-dicarboxamide]
melting point: 251 to 253 °C
IC50 [1]: 2 to 4 nM

SMILES: NC(=O)c1c(-c2cccc(F)c2)c(Cl)n2c1CN(C(=O)NC1COC1)CC2 [Compound 90, 6-chloro-7-(3-fluorophenyl)-N^2-(oxetan-3-yl)-3,4-dihydropyrrolo[1,2-a]pyrazine-2,8(1H)-dicarboxamide]
melting point: 184 to 186 °C
IC50 [1]: 6 to 7 nM

SMILES: CC1(CNC(=O)N2CCn3c(Cl)c(-c4cccc(F)c4)c(C(N)=O)c3C2)COC1 [Compound 91, 6-chloro-7-(3-fluorophenyl)-N^2-(3-methyl-oxetan-3-ylmethyl)-3,4-dihydropyrrolo[1,2-a]pyrazine-2,8(1H)-dicarboxamide]
melting point: 249 to 253 °C
IC50 [1]: 4 nM

Source: patent US9233965B2, “3,4-dihydropyrrolo[1,2-A]pyrazine-2,8(1H)-dicarboxamide derivatives, preparation thereof and therapeutic use thereof for diseases involving casein kinase 1 epsilon and/or casein kinase 1 delta” (SANOFI, priority 2010, dated 2016)
